Measured values: US8685916B2, “Opioid prodrugs with heterocyclic linkers” (Signature Therapeutics, Inc., priority 2011, dated 2014)
Like-named read-outs stand apart in the source and are kept apart here.

Key:
[1] = target: T1, trypsin from bovine pancreas (Bos taurus, UniProt P00760); assay: In vitro trypsin-mediated cleavage of oxycodone prodrugs; format: biochemical; details: 0.761 mM prodrug, Tris pH 8, 37° C.
T1 construct: purchased Sigma-Aldrich T8003; host or cells: bovine pancreas (tissue-derived preparation)
T1 sequence (P00760 24-246): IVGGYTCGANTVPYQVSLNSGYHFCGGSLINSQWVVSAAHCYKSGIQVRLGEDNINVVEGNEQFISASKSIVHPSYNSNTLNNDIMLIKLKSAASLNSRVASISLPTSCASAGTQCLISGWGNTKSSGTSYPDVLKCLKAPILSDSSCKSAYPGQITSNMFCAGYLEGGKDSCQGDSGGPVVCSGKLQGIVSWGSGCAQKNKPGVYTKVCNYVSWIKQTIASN
Procedure: (§1) The reactions were conducted at 37° C. for 24 h.
(§2) Table 4 indicates the results of exposure of the tested prodrugs to trypsin. […] Table 4 also indicates the cyclization rate of the cyclizable spacer leaving group of Compound KC-9, Compound KC-11, and Compound KC-18. The results are expressed as half-life of compound disappearance. For Compound KC-11, a diastereomer, two peaks (A and B) were analyzed.

trypsin [2] = target: T2, trypsin (Bos taurus, UniProt P00760); assay: as above; format: biochemical, bovine; details: bovine, trypsin from bovine pancreas; 0.761 mM prodrug, Tris pH 8, 37° C.; adjusted to 4815 BAEE U trypsin/mL
T2 construct: purchased Sigma-Aldrich T8003; host or cells: bovine pancreas (tissue-derived preparation)
T2 sequence (P00760 24-246): T1 sequence (P00760 24-246)
Procedure: as §1, §2

[3] = target: T1, trypsin from bovine pancreas; assay: In vitro trypsin-mediated cleavage of hydrocodone prodrugs; format: biochemical
Procedure: as §1
(§3) Table 9 indicates the results of exposure of the tested prodrugs to trypsin.

trypsin [4] = target: T2, trypsin; assay: as above; format: biochemical, bovine; details: bovine, trypsin from bovine pancreas, pH 8; adjusted to 4815 BAEE U trypsin/mL; read-out: Prodrug trypsin half-life (converted)
Procedure: as §1, §3

[5] = target: T1, trypsin from bovine pancreas; assay: In vitro trypsin conversion of Compound TP-5 to tapentadol and inhibition by Compound 109; format: biochemical
Procedure: (§4) Other reaction, incubation, sample treatment and analysis procedures were similar to those described in Example 39.

trypsin [6] = target: T2, trypsin; assay: as above; format: biochemical, bovine; details: bovine, trypsin from bovine pancreas, read-out: Pro-drug trypsin half-life, Average ± sd (converted)
Procedure: as §4

[7] = Pharmacokinetics of oxycodone prodrugs following PO administration to dogs; details: oxycodone in dog plasma, 5.7-[…] (prodrugs 4.15-[…]; oxycodone 2 mg/kg; OxyContin 20 mg tablet)
[8] = Pharmacokinetics following PO administration of ketone-modified oxycodone prodrugs to rats
[9] = oxycodone in rat plasma, 28-34 μmol/kg (prodrugs 16-24 mg/kg; oxycodone 10 mg/kg)

## COc1ccc2c3c1O[C@H]1C(OC(=O)N4CCCCC4CNC(=O)[C@H](CCCNC(=N)N)NC(=O)[C@H](C)NC(=O)CC(=O)O)=CC[C@@]4(O)[C@@H](C2)N(C)CC[C@]314 (stereo partly drawn) [Compound KC-15, N-(oxycodone-6-enol-carbonyl)piperidine-2-methylamine-L-arginine-L-alanine-malonate]
[1]
  OC formation rate: 22.3 ± 0.8 μmol/h/BAEE U
Trypsin [2]
  half-life at 0.761 mM: 0.173 ± 0.0114 min

## COc1ccc2c3c1O[C@H]1C(OC(=O)N4CCCCC4CNC(=O)[C@H](CCCNC(=N)N)NC(=O)[C@H](C)NC(C)=O)=CC[C@@]4(O)[C@@H](C2)N(C)CC[C@]314 (stereo partly drawn) [Compound KC-13, N-(oxycodone-6-enol-carbonyl)piperidine-2-methylamine-L-arginine-L-alanine-acetate]
[1]
  OC formation rate: 47.1 ± 5.72 μmol/h/BAEE U
Trypsin [2]
  half-life at 0.761 mM: 0.0458 ± 0.00051 min

## COc1ccc2c3c1O[C@H]1C(OC(=O)N4CCCCC4CNC(=O)[C@H](CCCNC(=N)N)NC(=O)CNC(=O)CC(=O)O)=CC[C@@]4(O)[C@@H](C2)N(C)CC[C@]314 (stereo partly drawn) [Compound KC-16, N-(oxycodone-6-enol-carbonyl)piperidine-2-methylamine-L-arginine-glycine-malonate]
[1]
  OC formation rate: 1.46 ± 0.093 μmol/h/BAEE U
Trypsin [2]
  half-life at 0.761 mM: 2.37 ± 0.162 min

## COc1ccc2c3c1O[C@H]1C(OC(=O)N4CCCC[C@@H]4CNC(=O)[C@H](CCCNC(=N)N)NC(=O)CNC(C)=O)=CC[C@H]4[C@@H](C2)N(C)CC[C@]314 [Compound KC-36, N-(hydrocodone-6-enol-carbonyl)-R-(piperidine-2-methylamine)-L-arginine-glycine-acetate]
[3]
  HC formation rate: 0.004 ± 0.00 μmol/h/BAEE U
Trypsin [4]
  half-life at 0.761 mM: 1.08 min

## CC[C@@H](c1cccc(OC(=O)N2CCCCC2CNC(=O)[C@@H](CCCNC(=N)N)NC(=O)CC(=O)O)c1)[C@@H](C)CN(C)C (stereo partly drawn) [Compound TP-5, N-(Tapentadol-carbonyl)piperidine-2-methylamine-L-arginine-malonate]
[5]; Compound 109 0 μM
  Rate of TP formation, Average ± sd: 0.684 ± 0.036 μmol/h/BAEE U
[5]; Compound 109 8 μM
  Rate of TP formation, Average ± sd: 0.1043 ± 0.0049 μmol/h/BAEE U
Trypsin [6]; with Compound 109 (trypsin inhibitor), 8 µM
  half-life: 62.4 ± 0.0366 min
Trypsin [6]
  half-life: 3.99 ± 0.00024 min

## COc1ccc2c3c1O[C@H]1C(OC(=O)N4CCCC[C@@H]4CNC(=O)[C@H](CCCNC(=N)N)NC(=O)CNC(=O)CC(=O)O)=CC[C@@]4(O)[C@@H](C2)N(C)CC[C@]314 [Compound KC-17, N-(oxycodone-6-enol-carbonyl)-R-(piperidine-2-methylamine)-L-arginine-glycine-malonate]
[1]
  OC formation rate: 1.23 ± 0.011 μmol/h/BAEE U
Trypsin [2]
  half-life at 0.761 mM: 2.65 ± 0.117 min

## COc1ccc2c3c1O[C@H]1C(OC(=O)N4CCCC4CNC(=O)[C@H](CCCNC(=N)N)NC(=O)CC(=O)O)=CC[C@@]4(O)[C@@H](C2)N(C)CC[C@]314 (stereo partly drawn) [Compound KC-10, N-(oxycodone-6-enol-carbonyl)pyrrolidine-2-methylamine-L-arginine-malonate]
[1]
  OC formation rate: 0.00274 ± 0.00027 μmol/h/BAEE U
Trypsin [2]
  half-life at 0.761 mM: 9.01 ± 0.306 min

## COc1ccc2c3c1O[C@H]1C(OC(=O)N4CCCCC4CNC(=O)[C@H](CCCNC(=N)N)NC(=O)CNC(C)=O)=CC[C@@]4(O)[C@@H](C2)N(C)CC[C@]314 (stereo partly drawn) [Compound KC-14, N-(oxycodone-6-enol-carbonyl)piperidine-2-methylamine-L-arginine-glycine-acetate]
[1]
  OC formation rate: 5.48 ± 0.1 μmol/h/BAEE U
Trypsin [2]
  half-life at 0.761 mM: 0.5143 ± 0.00198 min

## COc1ccc2c3c1O[C@H]1C(OC(=O)N4CCCCC4CNC(=O)[C@H](CCCNC(=N)N)NC(=O)CC(=O)O)=CC[C@@]4(O)[C@@H](C2)N(C)CC[C@]314 (stereo partly drawn) [Compound KC-12, N-(oxycodone-6-enol-carbonyl)piperidine-2-methylamine-L-arginine-malonate]
[1]
  OC formation rate: 0.231 ± 0.0097 μmol/h/BAEE U
Trypsin [2]
  half-life at 0.761 mM: 9.498 ± 0.0114 min

## COc1ccc2c3c1O[C@H]1C(OC(=O)N(C)CCNC(=O)[C@H](CCCNC(=N)N)NC(=O)CC(=O)O)=CC[C@@]4(O)[C@@H](C2)N(C)CC[C@]314 [Compound KC-3, N-1-[2-(oxycodone-6-enol-carbonyl-methyl-amino)-ethylamine]-L-arginine-malonate]
[7]
  AUC ± sd: 65.6 ± 22 ng·h/mL
  OC Cmax ± sd: 10.2 ± 3.3 ng/mL

## COc1ccc2c3c1O[C@H]1C(OC(=O)N4CCCC[C@@H]4CNC(=O)[C@H](CCCNC(=N)N)NC(=O)CC(=O)O)=CC[C@H]4[C@@H](C2)N(C)CC[C@]314 [Compound KC-39, N-(hydrocodone-6-enol-carbonyl)-R-(piperidine-2-methylamine)-L-arginine-malonate]
[3]
  HC formation rate: 0.00 ± 0.00 μmol/h/BAEE U
Trypsin [4]
  half-life at 0.761 mM: 23.9 min

## COc1ccc2c3c1O[C@H]1C(OC(=O)N4CCCC[C@@H]4CNC(=O)[C@H](CCCNC(=N)N)NC(C)=O)=CC[C@H]4[C@@H](C2)N(C)CC[C@]314 [Compound KC-38, N-(hydrocodone-6-enol-carbonyl)-R-(piperidine-2-methylamine)-L-arginine-acetate]
[3]
  HC formation rate: 0.001 ± 0.00 μmol/h/BAEE U
Trypsin [4]
  half-life at 0.761 mM: 7.2 ± 0.6 min

## COc1ccc2c3c1O[C@H]1C(OC(=O)N4CC(C(=O)O)CCC4CNC(=O)[C@H](CCCNC(=N)N)NC(=O)CNC(C)=O)=CC[C@H]4[C@@H](C2)N(C)CC[C@]314 (mixture of isomers) [Compound KC-32, N-(hydrocodone-6-enol-carbonyl)-[(2-methylamino)piperidine-3-carboxylate]-L-arginine-glycine-acetate]
Trypsin [4]
  half-life at 0.761 mM: 9 min

## COc1ccc2c3c1O[C@H]1C(OC(=O)N4CCCC[C@@H]4CNC(=O)[C@H](CCCNC(=N)N)NC(=O)CNC(=O)CC(=O)O)=CC[C@H]4[C@@H](C2)N(C)CC[C@]314 [Compound KC-31, N-(hydrocodone-6-enol-carbonyl)-R-(piperidine-2-methylamine)-L-arginine-glycine-malonate]
Trypsin [4]
  half-life at 0.761 mM: 3.9 min

## COc1ccc2c3c1O[C@H]1C(OC(=O)N4CCCC[C@@H]4CNC(=O)[C@H](CCCNC(=N)N)NC(=O)[C@H](C)NC(C)=O)=CC[C@H]4[C@@H](C2)N(C)CC[C@]314 [Compound KC-37, N-(hydrocodone-6-enol-carbonyl)-R-(piperidine-2-methylamine)-L-arginine -L-alanine-acetate]
[3]
  HC formation rate: 0.004 ± 0.00 μmol/h/BAEE U

## COc1ccc2c3c1O[C@H]1C(OC(=O)N4CCCC[C@@H]4CNC(=O)[C@H](CCCNC(=N)N)NC(=O)[C@H](C)NC(=O)CC(=O)O)=CC[C@H]4[C@@H](C2)N(C)CC[C@]314 [Compound KC-35, N-(hydrocodone-6-enol-carbonyl)-R-(piperidine-2-methylamine)-L-arginine-L-alanine-malonate]
Trypsin [4]
  half-life at 0.761 mM: 0.48 min

## COc1ccc2c3c1O[C@H]1C(OC(=O)N4CCCCC4CN)=CC[C@@]4(O)[C@@H](C2)N(C)CC[C@]314 (stereo partly shown) [Compound KC-11, N-(oxycodone-6-enol-carbonyl)piperidine-2-methylamine]
[8]; oxycodone in rat plasma, 0 to 24 h, 28-34 μmol/kg (prodrugs 16-24 mg/kg; oxycodone 10 mg/kg)
  AUC ± sd: 57.0 ± 9.0 ng·h/mL
[8]; [9]
  OC Cmax ± sd: 13.6 ± 3.0 ng/mL
  Tmax ± sd: 60 ± 0 min
[8]; rats
  release of oxycodone compared with Compound KC-9: significantly more oxycodone than does Compound KC-9
